Holding throughout (format): biochemical
In assay [1] the target is T1, Recombinant human AOC1/DAO protein (Homo sapiens, UniProt P19801).
T1 construct: purchased R&D systems 8298-AO
T1 sequence (P19801 20-751): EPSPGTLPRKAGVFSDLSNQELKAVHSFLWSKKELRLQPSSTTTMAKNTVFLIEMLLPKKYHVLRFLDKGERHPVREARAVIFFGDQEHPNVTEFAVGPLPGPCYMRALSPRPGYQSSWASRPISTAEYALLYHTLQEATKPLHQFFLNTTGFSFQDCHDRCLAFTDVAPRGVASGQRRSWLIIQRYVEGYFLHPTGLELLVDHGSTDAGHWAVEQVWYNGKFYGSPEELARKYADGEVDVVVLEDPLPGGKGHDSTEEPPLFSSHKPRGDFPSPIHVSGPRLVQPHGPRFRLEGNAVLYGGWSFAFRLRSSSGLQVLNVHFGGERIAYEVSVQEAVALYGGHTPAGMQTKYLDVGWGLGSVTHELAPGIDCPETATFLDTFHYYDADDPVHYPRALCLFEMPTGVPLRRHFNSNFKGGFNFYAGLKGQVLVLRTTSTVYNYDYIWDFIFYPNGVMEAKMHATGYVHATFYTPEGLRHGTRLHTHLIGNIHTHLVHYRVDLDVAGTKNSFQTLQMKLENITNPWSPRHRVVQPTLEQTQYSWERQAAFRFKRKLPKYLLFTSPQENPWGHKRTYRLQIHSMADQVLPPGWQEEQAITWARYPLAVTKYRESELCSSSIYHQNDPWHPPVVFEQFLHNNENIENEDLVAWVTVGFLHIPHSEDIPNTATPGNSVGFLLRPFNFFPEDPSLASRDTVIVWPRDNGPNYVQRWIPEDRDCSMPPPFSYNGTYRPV
The experiment in a line: Inhibitory activity on AOC1 (Amplex UltraRed/HRP, putrescine substrate). As to conditions: compound 100 μM to 5 nM. How it is done: Recombinant human AOC1/DAO protein was purchased from R&D systems (Cat: 8298-AO). Amplex UltraRed was purchased from Thermo scientific (Cat: A36006). HRP (Cat: P8250) and Putrescine (Cat: V900377) were purchased from Sigma. Enzyme reaction buffer (50 mM HEPES, 120 mM NaCl, 5 mM KCl, 2 mM CaCl2, 1.4 mM MgCl2, 0.001% Tween-20, pH7.4) was prepared. Test compound was dissolved in DMSO and serially diluted by 3-fold. The final concentration of test compound in 10 μL reaction system was 100 μM to 5 nM when AOC1 activity was detected. The content of DMSO in detection reaction system was 1%. After the DMSO solution of test compound was diluted in the enzyme reaction buffer at a volume ratio of 1:25, 10 μL of mixture was added to each well of detection plate. 4× substrate mixture (containing 400 μM Putrescine, 4U/mL HRP, 4 μM Amplex UltraRed) was prepared in the enzyme reaction buffer, 10 μL of which was added to each well. 20 μL of AOC1 protein diluted in enzyme reaction buffer was added to each well and the final concentration was 0.4 nM in 40 μL reaction system. Synergy Neo 2 was used to read the plate for detection. […] The enzyme activity was calculated based on the increased signal of each well from the 10th minute to the 30th minute. […]
(§1) Signalpositive was signal of positive control wells without test compounds added. […] IC50 value was calculated by using 4 parameters curve fitting.

For assay [2], the target named is T2, Recombinant human AOC2 protein (Homo sapiens, UniProt O75106).
T2 construct: Eli Lilly (provided, not purchased)
T2 sequence (O75106 1-756): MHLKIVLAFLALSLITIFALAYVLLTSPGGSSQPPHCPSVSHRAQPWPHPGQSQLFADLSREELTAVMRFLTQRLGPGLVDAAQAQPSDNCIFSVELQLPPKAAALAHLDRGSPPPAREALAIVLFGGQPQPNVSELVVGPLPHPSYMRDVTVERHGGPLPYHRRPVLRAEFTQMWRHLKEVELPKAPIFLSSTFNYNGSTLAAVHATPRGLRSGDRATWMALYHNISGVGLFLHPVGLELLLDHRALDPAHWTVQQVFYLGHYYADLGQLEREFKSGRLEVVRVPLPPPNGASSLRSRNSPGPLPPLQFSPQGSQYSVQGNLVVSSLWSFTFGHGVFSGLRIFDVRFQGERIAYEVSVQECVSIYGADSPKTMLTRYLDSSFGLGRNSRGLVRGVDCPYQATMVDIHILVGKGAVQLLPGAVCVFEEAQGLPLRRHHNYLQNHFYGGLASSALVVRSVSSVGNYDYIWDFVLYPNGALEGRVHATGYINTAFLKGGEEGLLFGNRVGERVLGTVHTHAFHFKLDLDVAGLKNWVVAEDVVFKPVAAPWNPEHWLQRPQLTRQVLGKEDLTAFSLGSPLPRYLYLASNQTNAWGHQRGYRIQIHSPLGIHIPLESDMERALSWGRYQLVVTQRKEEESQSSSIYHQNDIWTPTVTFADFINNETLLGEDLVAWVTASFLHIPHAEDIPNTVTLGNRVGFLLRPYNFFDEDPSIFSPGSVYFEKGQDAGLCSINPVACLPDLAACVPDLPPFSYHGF
The experiment in a line: Inhibitory activity on AOC2 (MAO-Glo assay). As to conditions: compound 100 μM to 5 nM. How it is done: (§2) This assay was used to evaluate the in vitro inhibitory activity of the compounds against SSAO/VAP-1 of different species. Recombinant human SSAO protein, mouse SSAO protein or rat SSAO protein (provided by Eli Lilly) were used. The enzyme activity detection kit, MAO-Glo Assay kit (V1402) was purchased from Promega. Enzyme reaction buffer (50 mM HEPES, 120 mM NaCl, 5 mM KCl, 2 mM CaCl2, 1.4 mM MgCl2, 0.001% Tween-20, pH 7.4) was prepared. The test compounds were dissolved in DMSO and serially diluted by 3-fold. The final concentration of test compound in a 10 μL reaction system was 1 μM to 0.05 nM when SSAO activity was detected. The content of DMSO in the detection reaction system was 1%. […] The reaction solution was incubated for 20 minutes at room temperature, and the plate was read with Synergy Neo 2 for detection. […]
as §1
Recombinant human AOC2 protein (provided by Eli Lilly). […] The final concentration of test compound in 10 μL reaction system was 100 μM to 5 nM when AOC2 activity was detected, while other reaction conditions were the same as those in Biological Test Example 1. […]

The target in assay [3] is T3, Recombinant human SSAO protein (Homo sapiens, UniProt Q16853).
T3 construct: Eli Lilly (provided, not purchased)
T3 sequence (Q16853 1-763): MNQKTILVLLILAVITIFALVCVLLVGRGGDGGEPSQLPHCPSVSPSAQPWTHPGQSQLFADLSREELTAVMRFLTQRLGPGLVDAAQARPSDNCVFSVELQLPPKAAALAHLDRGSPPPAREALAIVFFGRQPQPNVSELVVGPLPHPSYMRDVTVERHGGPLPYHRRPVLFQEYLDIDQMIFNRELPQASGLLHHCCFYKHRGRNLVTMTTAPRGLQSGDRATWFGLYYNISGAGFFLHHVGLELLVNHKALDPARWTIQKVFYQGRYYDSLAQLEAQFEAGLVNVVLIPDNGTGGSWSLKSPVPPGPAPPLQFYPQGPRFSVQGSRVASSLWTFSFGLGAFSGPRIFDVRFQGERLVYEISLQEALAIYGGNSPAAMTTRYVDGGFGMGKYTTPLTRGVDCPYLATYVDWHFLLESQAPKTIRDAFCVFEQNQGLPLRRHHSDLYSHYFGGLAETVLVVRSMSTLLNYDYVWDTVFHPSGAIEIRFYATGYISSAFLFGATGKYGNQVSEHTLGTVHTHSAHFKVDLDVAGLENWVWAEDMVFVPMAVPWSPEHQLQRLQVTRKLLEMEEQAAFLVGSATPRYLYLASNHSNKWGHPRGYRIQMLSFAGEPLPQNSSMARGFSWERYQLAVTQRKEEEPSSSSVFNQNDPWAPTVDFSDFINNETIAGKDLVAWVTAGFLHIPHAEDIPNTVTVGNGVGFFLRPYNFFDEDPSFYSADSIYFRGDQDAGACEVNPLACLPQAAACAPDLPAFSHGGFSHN
The experiment in a line: In vitro inhibitory activity on SSAO/VAP-1 (MAO-Glo assay). The settings on record: compound 1 μM to 0.05 nM. As for the experimental part:
as §2, with “1%. After the DMSO solution of test compounds was diluted in the enzyme reaction buffer at a volume ratio of 1:25, 2.5 μL of the solution was added to each well of detection plate with two replicates for each concentration. 5 μL of SSAO protein diluted in the enzyme reaction buffer was added to each well, the final concentration of which was 10 nM to 80 nM in 10 μL reaction system.” for “1%.”
as §1

For another assay, the target named is T4, Recombinant human MAO-A (Homo sapiens, UniProt P21397).
T4 construct: purchased Sigma M7316
T4 sequence (P21397 1-527): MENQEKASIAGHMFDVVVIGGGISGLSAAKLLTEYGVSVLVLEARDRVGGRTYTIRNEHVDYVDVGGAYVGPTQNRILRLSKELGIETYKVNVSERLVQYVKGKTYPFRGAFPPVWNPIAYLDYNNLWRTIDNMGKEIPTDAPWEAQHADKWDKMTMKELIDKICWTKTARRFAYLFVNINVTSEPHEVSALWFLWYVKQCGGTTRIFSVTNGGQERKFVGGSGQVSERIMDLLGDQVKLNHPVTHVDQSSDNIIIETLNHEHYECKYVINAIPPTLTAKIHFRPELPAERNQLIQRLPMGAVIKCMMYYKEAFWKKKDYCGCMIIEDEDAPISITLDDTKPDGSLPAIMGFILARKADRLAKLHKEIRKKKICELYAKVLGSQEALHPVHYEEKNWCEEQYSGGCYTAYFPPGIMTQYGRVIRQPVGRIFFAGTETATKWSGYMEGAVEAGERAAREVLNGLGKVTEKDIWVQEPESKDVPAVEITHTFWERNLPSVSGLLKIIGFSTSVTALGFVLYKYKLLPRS
Kind of assay: Inhibitory activity on MAO-A (MAO-Glo assay). As to conditions: recombinant human MAO-A 70 nM; compound 100 μM to 5 nM. How it is done:
as §2, with “1%. After the DMSO solution of test compounds was diluted in the enzyme reaction buffer at a volume ratio of 1:25, 2.5 μL of the solution was added to each well of detection plate with two replicates for each concentration.” for “1%.”
as §1
(§3) Recombinant human MAO-A and MAO-B protein was purchased from Sigma (M7316, M7441). […] The final concentration of test compound in 10 μL reaction system was 100 μM to 5 nM when MAO-A and MAO-B activity were detected. […]

The target in the next assay is T5, Recombinant human MAO-B (Homo sapiens, UniProt P27338).
T5 construct: purchased Sigma M7441
T5 sequence (P27338 1-520): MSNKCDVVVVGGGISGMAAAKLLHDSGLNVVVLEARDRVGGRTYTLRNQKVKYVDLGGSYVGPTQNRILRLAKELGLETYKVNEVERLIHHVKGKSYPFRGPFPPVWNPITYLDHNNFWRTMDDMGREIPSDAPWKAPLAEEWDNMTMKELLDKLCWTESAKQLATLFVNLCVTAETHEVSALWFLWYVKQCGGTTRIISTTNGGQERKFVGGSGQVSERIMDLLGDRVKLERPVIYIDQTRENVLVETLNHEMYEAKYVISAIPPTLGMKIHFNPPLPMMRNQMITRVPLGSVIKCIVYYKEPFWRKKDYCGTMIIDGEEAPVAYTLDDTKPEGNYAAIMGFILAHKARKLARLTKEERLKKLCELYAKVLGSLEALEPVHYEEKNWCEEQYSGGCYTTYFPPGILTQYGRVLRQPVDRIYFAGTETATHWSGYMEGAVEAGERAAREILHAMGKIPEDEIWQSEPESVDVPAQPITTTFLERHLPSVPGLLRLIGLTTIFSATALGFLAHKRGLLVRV
Kind of assay: Inhibitory activity on MAO-B (MAO-Glo assay). As to conditions: recombinant human MAO-B 300 nM; compound 100 μM to 5 nM. How it is done:
as §2, with “1%. After the DMSO solution of test compounds was diluted in the enzyme reaction buffer at a volume ratio of 1:25, 2.5 μL of the solution was added to each well of detection plate with two replicates for each concentration.” for “1%.”
as §1, §3

On to `CC1(O)CCN(c2ncc(OC/C(=C/F)CN)cn2)CC1` [Example 1, (E)-1-(5-((2-(Aminomethyl)-3-fluoroallyl)oxy)pyrimidin-2-yl)-4-methylpiperidin-4-ol], for which the IC50 was over 10 µM in assay [1]; over 1 µM in assay [2]; under 0.01 µM in assay [3]; 10 to 100 µM on Recombinant human MAO-A; over 20 µM on Recombinant human MAO-B.
`COCC1(O)CCN(c2ncc(OC/C(=C/F)CN)cn2)CC1` [Example 2, (E)-1-(5-((2-(aminomethyl)-3-fluoroallyl)oxy)pyrimidin-2-yl)-4-(methoxymethyl)piperidin-4-ol]: the IC50 in assay [1] is 0.1 to 10 µM; in assay [2], over 1 µM; in assay [3], under 0.01 µM; at Recombinant human MAO-A, over 100 µM; at Recombinant human MAO-B, over 20 µM.

The term IC50 denotes the concentration needed to halve the response being measured.

The values are drawn from patent US12486244B2, “Preparation of semicarbazide-sensitive amine oxidase inhibitor and use thereof” (ENNOVABIO (ZHEJIANG) PHARMACEUTICALS CO., LTD., priority 2020, dated 2025).
